Reference: patent publication US9751837B2, “Kinase inhibitors” (RESPIVERT LIMITED, priority 2014, dated 2017)
In brackets after ≈: the same amount, converted by molar mass.

Columns and labels:
Jurkat cells = experiment: Cell cytotoxicity assay (r); assay type: cell-based, human; conditions: 24 hours
Protocol: 1×10^5 Jurkat cells (immortalised human T lymphocytes) are added to the appropriate number of wells of a 96 well plate in 100 μL of media (RPMI supplemented with 10% foetal bovine serum). 1 μL of DMSO control (final concentration 1.0% v/v) or test compound (final concentration 20, 5 or 1 μg/mL) is added to the wells and incubated at 37° C., 5% CO2. After 24 hours, the plate is centrifuged at 1200 rpm for 3 minutes and the supernatant discarded. Cells are then resuspended in 150 μL (final concentration 7.5 μg/mL) of propidium iodide (PI) in PBS and incubated at 37° C., 5% CO2 for 15 minutes. After 15 minutes, cells are analysed by flow cytometry (BD accuri) using the FL3 window. The % viability is calculated as the % of cells that are PI negative in the test wells normalised to the DMSO control.

[1] = Solubility in fasted-state simulated colonic fluid (FaSSCoF) at pH 6.5; assay type: physicochemical; conditions: 25 °C, pH 6.5, fassgf or other biorelevant, thermodynamic from solid
Protocol: The solubilities of compounds of the invention in FaSSCoF at pH 6.5 are determined using a modification of a previously-reported procedure (Vertzoni, M., et al. Pharm. Res. 2010, 27, 2187-2196). In place of the bile salt extract employed in the original procedure (which extract is no longer available), the modified procedure uses a mixture of sodium taurochlorate (0.15 g), glycocholic acid (0.15 g), ursodeoxycholic acid (0.05 g), cholic acid (0.05 g), and glycodeoxycholic acid (0.05 g). These five bile acids are ground together with a mortar and pestle to produce a fine white powder that is incorporated into the FaSSCoF, as outlined below.
Tris(hydroxymethyl)aminomethane (Tris; 0.275 g) and maleic acid (0.44 g) are dissolved in water (35 mL) to give a solution whose pH is adjusted to 6.5 by treatment with 0.5M NaOH (ca. 12 mL). The solution is then made up to 50 mL with water. A portion of this Tris/maleate buffer solution (ca. 25 mL) is added to a 0.5 L round-bottomed flask, before being treated with 0.00565 g of the bile acid mixture described above. Solutions of phosphatidylcholine (0.0111 g) in DCM (0.15 mL) and palmitic acid (0.0013 g) in DCM (0.15 mL) are added, then the organic solvent is evaporated off under reduced pressure at 40° C. until a clear solution, with no perceptible DCM odour, is achieved. The volume of the evaporated solution is adjusted to 50 mL by addition of the remainder of Tris/maleate buffer, then BSA (0.115 g) is added, before being dissolved by gentle agitation.
Test compounds are suspended in the pH 6.5 FaSSCoF medium to give a maximum final concentration of 2-10 mg/mL. The suspensions are equilibrated at 25° C. for 24 h, before being filtered through a glass fibre C filter. The filtrates are then diluted as appropriate for injection and quantification by HPLC with reference to a standard. Different volumes of the standard, diluted and undiluted sample solutions are injected and the solubilities are calculated using the peak areas determined by integration of the peak found at the same retention time as the principal peak in the standard injection.

[2] = pH 6.5 FaSSCoF Solubility (mg/mL) Run 1
[3] = pH 6.5 FaSSCoF Solubility (mg/mL) Run 2

Row | solubility thermodynamic at 24 h [1, 2] | solubility thermodynamic at 24 h [1, 3] | SMILES | % Viability at 20 μg/mL (Jurkat cells) | % Viability at 5 μg/mL (Jurkat cells) | % Viability at 1 μg/mL (Jurkat cells)
1 | 35 µg/mL (≈ 44 µM) | 33 µg/mL (≈ 41.5 µM) | COc1cc(Nc2cc(Oc3ccc(NC(=O)Nc4cc(NS(C)(=O)=O)cc(C(C)(C)C)c4)c4ccccc34)ccn2)ccc1C(=O)NCCN1CCN(C)CC1 [17(bo), 4-((4-((4-(3-(3-(tert-Butyl)-5-(methylsulfonamido)phenyl)ureido)naphthalen-1-yl)oxy)pyridin-2-yl)amino)-2-methoxy-N-(2-(4-methylpiperazin-1-yl)ethyl)benzamide] | 14.0% |  | 
2 |  |  | COc1cc(Nc2cc(Oc3ccc(NC(=O)Nc4cc(C(C)(C)C)cc(NS(C)(=O)=O)c4OC)c4ccccc34)ccn2)ccc1C(=O)N[C@@H]1CCN(C)C1 [17(cq), (R)-4-((4-((4-(3-(5-(tert-Butyl)-2-methoxy-3-(methylsulfonamido)phenyl)ureido)-naphthalen-1-yl)oxy)pyridin-2-yl)amino)-2-methoxy-N-(1-methylpyrrolidin-3-yl)benzamide] | 0.7% | 9.0% | 
3 | 3 µg/mL (≈ 4.01 µM) | 3 µg/mL (≈ 4.01 µM) | COc1cc(Nc2cc(Oc3ccc(NC(=O)Nc4cc(C(C)(C)C)cc(NS(C)(=O)=O)c4OC)c4ccccc34)ccn2)ccc1-n1ccccc1=O [Example 31, N-(5-(tert-Butyl)-2-methoxy-3-(3-(4-((2-((3-methoxy-4-(2-oxopyridin-1(2H)-yl)phenyl)amino)-pyridin-4-yl)oxy)naphthalen-1-yl)ureido)phenyl)methanesulfonamide] | 99.0% |  | 
4 | 1 µg/mL (≈ 1.17 µM) | 1 µg/mL (≈ 1.17 µM) | COc1cc(Nc2nccc(Oc3ccc(NC(=O)Nc4cc(C(C)(C)C)cc(NS(C)(=O)=O)c4OC)c4ccccc34)n2)cc(OC)c1C(=O)NCCN1CCN(C)CC1 [17(az), 4-((4-((4-(3-(5-(tert-Butyl)-2-methoxy-3-(methylsulfonamido)phenyl)ureido)naphthalen-1-yl)oxy)pyrimidin-2-yl)amino)-2,6-dimethoxy-N-(2-(4-methylpiperazin-1-yl)ethyl)benzamide] | 4.5% |  | 
5 | 23 µg/mL (≈ 28.4 µM) | 24 µg/mL (≈ 29.7 µM) | COc1cc(Nc2cc(Oc3ccc(NC(=O)Nc4cc(NS(C)(=O)=O)cc(C(C)(C)C)c4)c4ccccc34)ccn2)ccc1C(=O)NCCCN1CCN(C)CC1 [17(bp), 4-((4-((4-(3-(3-(tert-Butyl)-5-(methylsulfonamido)phenyl)ureido)naphthalen-1-yl)oxy)pyridin-2-yl)amino)-2-methoxy-N-(3-(4-methylpiperazn-1-yl)propyl)benzamide] | 2.0% | 41.0% | 
6 |  |  | COc1cc(Nc2cc(Oc3ccc(NC(=O)Nc4cc(NS(C)(=O)=O)cc(C(C)(C)C)c4)c4ccccc34)ccn2)ccc1C(=O)NCCC1CCN(C)CC1 [17(bs), 4-((4-((4-(3-(3-(tert-Butyl)-5-(methylsulfonamido)phenyl)ureido)naphthalen-1-yl)oxy)pyridin-2-yl)amino)-2-methoxy-N-(2-(1-methylpiperidin-4-yl)ethyl)benzamide] | 0.3% |  | 
7 |  |  | COc1cc(Nc2cc(Oc3ccc(NC(=O)Nc4cc(C(C)(C)C)cc(NS(C)(=O)=O)c4OC)c4ccccc34)ccn2)ccc1C(=O)NCCCCCN(C)C [17(bd), 4-((4-((4-(3-(5-(tert-Butyl)-2-methoxy-3-(methylsulfonamido)phenyl)ureido)naphthalen-1-yl)oxy)pyridin-2-yl)amino)-N-(5-(dimethylamino)pentyl)-2-methoxybenzamide] | 0.1% |  | 
8 |  |  | COc1cc(Nc2cc(Oc3ccc(NC(=O)Nc4cc(C(C)(C)C)cc(NS(C)(=O)=O)c4OC)c4ccccc34)ccn2)ccc1S(=O)(=O)N(C)CCCN1CCN(C)CC1 [Example 25, 4-((4-((4-(3-(5-(tert-Butyl)-2-methoxy-3-(methylsulfonamido)phenyl)ureido)naphthalen-1-yl)oxy)pyridin-2-yl)amino)-2-methoxy-N-methyl-N-(3-(4-methylpiperazin-1-yl)propyl)benzenesulfonamide] | 0.7% |  | 
9 |  |  | COc1cc(Nc2cc(Oc3ccc(NC(=O)Nc4cc(C(C)(C)C)cc(NS(C)(=O)=O)c4OC)c4ccccc34)ccn2)ccc1C(=O)NCCN1CCN(C)CC1(C)C [17(bi), 4-((4-((4-(3-(5-(tert-Butyl)-2-methoxy-3-(methylsulfonamido)phenyl)ureido)naphthalen-1-yl)oxy)pyridin-2-yl)amino)-2-methoxy-N-(2-(2,2,4-trimethylpiperazin-1-yl)ethyl)benzamide] | 0.6% | 0.8% | 
10 |  |  | COc1cc(Nc2cc(Oc3ccc(NC(=O)Nc4cc(C(C)(C)C)cc(C(=O)NCCO)c4OC)c4ccccc34)ccn2)ccc1C(=O)NCCN1CC[S+]([O-])CC1 [Example 32, 5-(tert-Butyl)-N-(2-hydroxyethyl)-2-methoxy-3-(3-(4-((2-((3-methoxy-4-((2-(1-oxidothiomorpholino)ethyl)carbamoyl)phenyl)amino)pyridin-4-yl)oxy)naphthalen-1-yl)ureido)benzamide] | 2.5% |  | 
11 |  |  | CCN1CCN(CCNC(=O)c2ccc(Nc3cc(Oc4ccc(NC(=O)Nc5cc(C(C)(C)C)cc(NS(C)(=O)=O)c5OC)c5ccccc45)ccn3)cc2OC)CC1 [17(be), 4-((4-((4-(3-(5-(tert-Butyl)-2-methoxy-3-(methylsulfonamido)phenyl)ureido)naphthalen-1-yl)oxy)pyridin-2-yl)amino)-N-(2-(4-ethylpiperazin-1-yl)ethyl)-2-methoxybenzamide] | 0.5% | 0.7% | 
12 |  |  | COc1cc(Nc2cc(Oc3ccc(NC(=O)Nc4cc(C(C)(C)C)cc(NS(C)(=O)=O)c4OC)c4ccccc34)ccn2)ccc1S(=O)(=O)CCCN1CCN(C)CC1 [17(ch), N-(5-(tert-Butyl)-2-methoxy-3-(3-(4-((2-((3-methoxy-4-((3-(4-methylpiperazin-1-yl)propyl)sulfonyl)phenyl)amino)pyridin-4-yl)oxy)naphthalen-1-yl)ureido)phenyl)methanesulfonamide] | 0.7% |  | 82.0%
13 |  |  | COc1cc(Nc2cc(Oc3ccc(NC(=O)Nc4cc(C(C)(C)C)cc(NS(C)(=O)=O)c4OC)c4ccccc34)ccn2)ccc1C(=O)NCCN1CC[C@@H](O)C1 [17(cr), (R)-4-((4-((4-(3-(5-(tert-Butyl)-2-methoxy-3-(methylsulfonamido)phenyl)ureido)-naphthalen-1-yl)oxy)pyridin-2-yl)amino)-N-(2-(3-hydroxypyrrolidin-1-yl)ethyl)-2-methoxybenzamide] | 0.9% | 18.0% | 
14 |  |  | COc1cc(Nc2cc(Oc3ccc(NC(=O)Nc4cc(C(C)(C)C)cc(NS(C)(=O)=O)c4OC)c4ccccc34)ccn2)ccc1C(=O)NCCC1CCNCC1 [Example 27, 4-((4-((4-(3-(5-(tert-Butyl)-2-methoxy-3-(methylsulfonamido)phenyl)ureido)naphthalen-1-yl)oxy)pyridin-2-yl)amino)-2-methoxy-N-(2-(piperidin-4-yl)ethyl)benzamide] | 1.7% |  | 
15 |  |  | COc1cc(Nc2nccc(Oc3ccc(NC(=O)Nc4cc(C(C)(C)C)cc(NS(C)(=O)=O)c4OC)c4ccccc34)n2)ccc1C(=O)NCCOCCOCCO [17(by), 4-((4-((4-(3-(5-(tert-Butyl)-2-methoxy-3-(methylsulfonamido)phenyl)ureido)naphthalen-1-yl)oxy)pyrimidin-2-yl)amino)-N-(2-(2-(2-hydroxyethoxy)ethoxy)ethyl)-2-methoxybenzamide] | 1.6% |  | 
16 |  |  | CCC(=O)NS(=O)(=O)c1ccc(Nc2nccc(Oc3ccc(NC(=O)Nc4cc(C(C)(C)C)cc(NS(C)(=O)=O)c4OC)c4ccccc34)n2)cc1OC [17(bk), N-((4-((4-((4-(3-(5-(tert-Butyl)-2-methoxy-3-(methylsulfonamido)phenyl)ureido)-naphthalen-1-yl)oxy)pyrimidin-2-yl)amino)-2-methoxyphenyl)sulfonyl)propionamide] |  |  | 93.0%
